Measurements: ChEMBL document CHEMBL1136520, “Advances toward new antidepressants beyond SSRIs: 1-aryloxy-3-piperidinylpropan-2-ols with dual 5-HT1A receptor antagonism/SSRI activities. Part 1” (Bioorg Med Chem Lett, 2003)

Assays:
[1] = biological target: T1, 5-hydroxytryptamine receptor 1A (Homo sapiens, UniProt P08908); experiment: Binding affinity was determined towards 5-hydroxytryptamine 1A receptor using [3H]8-OH-DPAT as radioligand
T1 sequence (P08908 whole entry): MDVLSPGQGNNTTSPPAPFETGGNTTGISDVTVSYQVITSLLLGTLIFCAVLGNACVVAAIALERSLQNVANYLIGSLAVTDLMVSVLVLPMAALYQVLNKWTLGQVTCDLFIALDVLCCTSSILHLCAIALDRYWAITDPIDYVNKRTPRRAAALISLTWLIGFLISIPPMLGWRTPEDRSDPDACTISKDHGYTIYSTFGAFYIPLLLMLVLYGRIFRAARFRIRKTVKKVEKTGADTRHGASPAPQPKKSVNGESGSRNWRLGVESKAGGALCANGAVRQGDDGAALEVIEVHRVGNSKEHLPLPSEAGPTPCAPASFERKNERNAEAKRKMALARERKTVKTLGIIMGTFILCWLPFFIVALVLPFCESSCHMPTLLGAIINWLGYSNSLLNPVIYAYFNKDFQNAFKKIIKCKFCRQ

[2] = biological target: T2, 5-hydroxytryptamine receptor 1A (Homo sapiens) (UniProt P08908); experiment: Maximal response as a result of 5-hydroxytryptamine 1A receptor-mediated stimulation of [35S]GTP-gamma-S, binding; format: functional
T2 sequence (whole entry): T1 sequence (P08908 whole entry)

[3] = biological target: T3, Sodium-dependent serotonin transporter (Rattus norvegicus, UniProt P31652); experiment: Binding affinity towards serotonin [5-HT] reuptake site labeled with [3H]paroxetine as radioligand
T3 sequence (P31652 whole entry): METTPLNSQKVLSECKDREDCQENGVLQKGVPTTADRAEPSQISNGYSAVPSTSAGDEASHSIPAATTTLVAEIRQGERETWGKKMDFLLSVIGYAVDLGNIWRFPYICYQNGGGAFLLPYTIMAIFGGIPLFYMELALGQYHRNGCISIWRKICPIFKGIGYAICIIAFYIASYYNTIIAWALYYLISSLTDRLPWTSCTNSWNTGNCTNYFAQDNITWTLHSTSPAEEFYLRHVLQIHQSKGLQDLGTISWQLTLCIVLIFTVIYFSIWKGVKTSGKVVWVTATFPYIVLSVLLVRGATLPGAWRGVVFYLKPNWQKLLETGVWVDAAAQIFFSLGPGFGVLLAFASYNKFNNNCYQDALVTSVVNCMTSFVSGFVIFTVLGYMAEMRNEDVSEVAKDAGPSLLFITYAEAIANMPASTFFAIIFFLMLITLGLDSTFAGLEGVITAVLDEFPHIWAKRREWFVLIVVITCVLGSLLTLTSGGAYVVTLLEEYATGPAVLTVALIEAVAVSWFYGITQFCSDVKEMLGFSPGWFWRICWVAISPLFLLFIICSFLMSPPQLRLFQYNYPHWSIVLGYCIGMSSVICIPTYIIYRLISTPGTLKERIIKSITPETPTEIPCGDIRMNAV

[4] = biological target: T1, 5-hydroxytryptamine receptor 1A; experiment: Binding affinity towards 5-HT1A receptor using [3H]8-OH-DPAT as radioligand
[5] = biological target: Sodium-dependent serotonin transporter (Rattus norvegicus) (UniProt P31652); experiment: Inhibitory activity against Serotonin transporter labeled with [3H]-paroxetine as radioligand at 100 nM concentration
Sodium-dependent serotonin transporter (Rattus norvegicus), sequence (P31652 whole entry): as above

[6] = biological target: T1, 5-hydroxytryptamine receptor 1A; experiment: Binding affinity towards 5-hydroxytryptamine 1A receptor using [3H]8-OH-DPAT as radioligand
[7] = biological target: T2, 5-hydroxytryptamine receptor 1A (Homo sapiens); experiment: Maximal response as a result of 5-HT1A receptor-mediated stimulation of [35S]GTP-gamma-S, binding; format: functional
[8] = biological target: T3, Sodium-dependent serotonin transporter; experiment: Binding affinity towards Serotonin transporter labeled with [3H]paroxetine as radioligand
[9] = biological target: Sodium-dependent serotonin transporter (Rattus norvegicus) (UniProt P31652); experiment: Inhibitory activity against serotonin [5-HT] reuptake site labeled with [3H]paroxetine as radioligand at 100 nM concentration
[10] = biological target: T2, 5-hydroxytryptamine receptor 1A (Homo sapiens); experiment: Inhibitory activity against 5-hydroxytryptamine 1A receptor using [3H]-8-OH-DPAT as radioligand at 100 nM concentration
[11] = biological target: Sodium-dependent serotonin transporter (Rattus norvegicus) (UniProt P31652); experiment: Inhibitory activity against serotonin [5-HT] reuptake site labeled with [3H]-paroxetine as radioligand at 100 nM concentration

SMILES | Ki [1] [nM] | Emax [2] [%] | Ki [3] [nM] | further results
Cc1cc2c(OC[C@@H](O)CN3CCC(c4cc5ccc(F)cc5s4)CC3)cccc2[nH]1 | 15.3 | 12.6 | 11.3 | –
CC(C)Oc1cccc2sc(C3CCN(C[C@H](O)COc4cccc5[nH]ccc45)CC3)cc12 | – | – | – | Ki [4]: 7.45 nM; inhibition [5]: < 50%
Cc1cc2c(OC[C@@H](O)CN3CCC(c4cc5c(C)cccc5s4)CC3)cccc2[nH]1 | 10.4 | 12.1 | 17.4 | –
Cc1cc2c(OC[C@@H](O)CN3CCC(c4cc5c(F)cccc5s4)CC3)cccc2[nH]1 | 14.1 | 11.6 | 34.2 | –
COc1cccc2cc(C3CCN(C[C@H](O)COc4cccc5[nH]ccc45)CC3)sc12 | – | – | – | Ki [6]: 6.13 nM; Emax [7]: 9.32%; Ki [8]: 94.3 nM
COc1ccc2cc(C3CCN(C[C@H](O)COc4cccc5[nH]ccc45)CC3)sc2c1 | – | – | – | Ki [6]: 3.13 nM; Emax [7]: 4.92%; Ki [8]: 68.7 nM
Cc1cc(C)c2cc(C3CCN(C[C@H](O)COc4cccc5[nH]c(C)cc45)CC3)sc2c1 | 27.8 | 13.4 | 52.1 | –
Cc1cc2c(OC[C@@H](O)CN3CCC(c4cc5cc(F)ccc5s4)CC3)cccc2[nH]1 | 7.5 | 12.1 | 5.27 | –
COc1cccc2sc(C3CCN(C[C@H](O)COc4cccc5[nH]ccc45)CC3)cc12 | – | 7.47 | 12.6 | –
O[C@H](COc1cccc2[nH]ccc12)CN1CCC(c2cc3ccc(F)cc3s2)CC1 | 9.31 | 11.7 | 1.99 | –
Cc1cc(C)c2cc(C3CCN(C[C@H](O)COc4cccc5[nH]ccc45)CC3)sc2c1 | – | – | – | inhibition [10]: < 50%; inhibition [11]: < 50%
Cc1ccc2cc(C3CCN(C[C@H](O)COc4cccc5[nH]ccc45)CC3)sc2c1 | 12.7 | 13.8 | 50.5 | –
CC(C)Oc1ccc2cc(C3CCN(C[C@H](O)COc4cccc5[nH]ccc45)CC3)sc2c1 | – | – | – | Ki [6]: 19.9 nM; inhibition [5]: < 50%
O[C@H](COc1cccc2[nH]ccc12)CN1CCC(c2cc3ccc(Cl)cc3s2)CC1 | 7.64 | – | 14 | –
O[C@H](COc1cccc2[nH]ccc12)CN1CCC(c2cc3c(Cl)cccc3s2)CC1 | 9.12 | – | 15.6 | –
Cc1ccc2cc(C3CCN(C[C@H](O)COc4cccc5[nH]c(C)cc45)CC3)sc2c1 | 22.6 | – | – | inhibition [9]: < 50%
O[C@H](COc1cccc2[nH]ccc12)CN1CCC(c2cc3cc(Cl)ccc3s2)CC1 | 7.21 | 11 | 105 | –
COc1ccc2sc(C3CCN(C[C@H](O)COc4cccc5[nH]ccc45)CC3)cc2c1 | – | – | – | Ki [4]: 1.44 nM; inhibition [5]: < 50%
O[C@H](COc1cccc2[nH]ccc12)CN1CCC(c2cc3cc(F)ccc3s2)CC1 | 29.4 | 13.2 | 11.8 | –

Continued by falling Ki [1], values first:

Ki [1] [nM] | Emax [2] [%] | Ki [3] [nM] | SMILES | further results
7.12 | 12.5 | 37.2 | Oc1cccc2cc(C3CCN(C[C@H](O)COc4cccc5[nH]ccc45)CC3)sc12 | –
6.79 | 11.2 | 15.9 | O[C@H](COc1cccc2[nH]ccc12)CN1CCC(c2cc3c(F)cccc3s2)CC1 | –
6.28 | – | 24.1 | Cc1c(C2CCN(C[C@H](O)COc3cccc4[nH]ccc34)CC2)sc2ccccc12 | –
6.07 | – | – | COc1ccc2c(C)c(C3CCN(C[C@H](O)COc4cccc5[nH]ccc45)CC3)sc2c1 | inhibition [11]: < 50%
5.17 | – | – | Cc1c(C2CCN(C[C@H](O)COc3cccc4[nH]ccc34)CC2)sc2ccc(F)cc12 | inhibition [9]: < 50%
4.83 | 9.05 | 51.2 | COc1cccc2sc(C3CCN(C[C@H](O)COc4cccc5[nH]c(C)cc45)CC3)cc12 | –
4.7 | 17 | 3.69 | Cc1cccc2sc(C3CCN(C[C@H](O)COc4cccc5[nH]ccc45)CC3)cc12 | –
3.7 | 12.3 | 16.7 | O[C@H](COc1cccc2[nH]ccc12)CN1CCC(c2cc3ccccc3s2)CC1 | –
3.09 | – | – | Oc1ccc2cc(C3CCN(C[C@H](O)COc4cccc5[nH]ccc45)CC3)sc2c1 | inhibition [9]: < 50%
